One assay concerns Normal Conscious Rat. As to the kind of experiment: Aquaretic Effects in Normal Conscious Rat (urine volume). It counts as in vivo, rat (Sprague-Dawley, male). The procedure:
Aquaretic Effects in Normal Conscious Rat
Studies were performed with Sprague-Dawley male SPF rats (body weight: 240 to 320 g; 8-week-old). In this experiment, each group consisted of not less than 4 animals and rats were fasted over 16 to 20 hours. The animals were acclimatized in metabolic cages for one hour, then each compound to be tested was dissolved in 100% N,N-dimethylformamide or suspended in 5% gum arabic solution and administered to these animals intravenously (iv.) in a dose of 3 mg/kg or orally (p.o.) in a dose of 30 mg/kg. Immediately after the test compound or vehicle were orally administered, saline (25 ml/kg) was given orally. Spontaneous voided urines were collected for 4 hours after the administration of the compound and the amount of the urine were determined. In this case, the control group consisted of animals to which only 5% gum arabic was orally administered.
In addition, known compounds of Comparative Examples 2 and Comparative Examples 3 and 4 represented by the following formulas were used as control compounds.

The target in the next assay is Vasopressin V1 Receptor (Rattus norvegicus, UniProt P30560). As to the kind of experiment: biochemical. It counts as binding, rat (Sprague-Dawley, female; liver crude membrane). The note with it: 1 h; 10^-7 M; inhibition rate at this concentration; read-out: Binding Rate of Vasopressin V1 Receptor.
Sequence of Vasopressin V1 Receptor (P30560 whole entry): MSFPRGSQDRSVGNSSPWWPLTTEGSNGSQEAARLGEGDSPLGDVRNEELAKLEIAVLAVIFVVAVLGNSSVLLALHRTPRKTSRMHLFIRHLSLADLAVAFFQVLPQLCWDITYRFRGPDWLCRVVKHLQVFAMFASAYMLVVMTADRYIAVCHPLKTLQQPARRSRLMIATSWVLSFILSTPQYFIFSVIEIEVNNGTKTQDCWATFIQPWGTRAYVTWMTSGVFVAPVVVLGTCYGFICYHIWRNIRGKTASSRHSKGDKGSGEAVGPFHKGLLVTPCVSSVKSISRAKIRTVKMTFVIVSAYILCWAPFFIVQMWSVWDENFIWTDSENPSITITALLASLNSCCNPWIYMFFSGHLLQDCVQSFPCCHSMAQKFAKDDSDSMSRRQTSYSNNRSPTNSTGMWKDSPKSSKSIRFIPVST
The next assay has as its target Vasopressin V2 Receptor (Rattus norvegicus, UniProt Q00788). As to the kind of experiment: biochemical. It counts as binding, rat (Sprague-Dawley, female; kidney crude membrane). The note with it: 1 h; 10^-7 M; inhibition rate at this concentration; read-out: Binding Rate of Vasopressin V2 Receptor.

Structures are written as SMILES.

The source of these data is US6225306A, “Biphenyl derivatives and drug composition” (Wakamoto Pharmaceutical Co., Ltd., priority 1997, dated 2001).

Sequence of Vasopressin V2 Receptor (Q00788 whole entry): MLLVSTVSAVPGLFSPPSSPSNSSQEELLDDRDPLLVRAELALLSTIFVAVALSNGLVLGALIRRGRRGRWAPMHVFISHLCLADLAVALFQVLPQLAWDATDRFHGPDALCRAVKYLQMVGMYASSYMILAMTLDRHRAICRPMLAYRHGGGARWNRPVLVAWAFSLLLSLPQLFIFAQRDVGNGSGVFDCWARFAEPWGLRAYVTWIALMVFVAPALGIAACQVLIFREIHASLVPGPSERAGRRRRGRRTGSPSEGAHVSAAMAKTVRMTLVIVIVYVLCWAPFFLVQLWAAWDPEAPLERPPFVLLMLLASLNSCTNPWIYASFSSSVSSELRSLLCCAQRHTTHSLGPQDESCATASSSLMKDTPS
Procedure for Vasopressin V1 Receptor: The livers excised from Sprague-Dawley female rats were cut into small pieces, and were homogenized in 50 mM Tris-HCl, pH 7.4 hereunder referred to as "buffer"). The homogenate was centrifuged at 50000×g, at 4° C. for 20 minutes. The pellet was added the buffer in an amount of 10 times the volume of the pellet, the mixture was recentrifuged by the same method as described above to wash the residue. The buffer was further added to the resulting pellet so that the protein content thereof was adjusted to 10 mg/ml to thus give a crude membrane fraction of rat liver. The crude membrane fraction of rat liver was used in the following test. More specifically, 5000 μg of the crude liver membrane was incubated with [^3 H]-Arg-vasopressin V-1 antagonist ([^3 H) vasopressin V1 antagonist: 2 nM) and various concentration (3×10^-12 to 10^-6) of the test compounds in a 1000 μL of buffer containing 10 mM magnesium chloride, 10 mM potassium chloride and 0.1% bovine serum albumin at 25° C. for 60 minutes. Thereafter the incubation mixture was rapidly filtered by vacuum using a cell harvester. The filters were washed with buffer to remove free ligands and excess buffer, and to thus trap labeled ligand linked with the receptor on the filter paper. The filter paper was sufficiently dried and mixed with a liquid scintillator, and the amount of the [^3 H] vasopressin V1 antagonist bonded to the membrane was determined using a liquid scintillation counter. The inhibition rate at each concentration was calculated according to the following equation:
Inhibition Rate (%)=100-[(B-N)/(B0 -N)]×100
Wherein B represents the amount of the [^3 H] vasopressin V1 antagonist bonded to the membrane in the presence of known amounts of the compound to be tested and the [^3 CH] vasopressin V1 antagonist;
B0 represents the amount of the [^3 H] vasopressin V1 antagonist bonded to the membrane in the absence of the compound to be tested;
N represents the amount of the [^3 H] vasopressin V1 antagonist bonded to the membrane in the presence of an excess of vasopressin (10^-6 M).
The IC50 value (the concentration required to cause 50% inhibition of the specific binding of [^3 H]-V1 antagonist) was determined. […] On the other hand, for the compounds which were investigated only one concentration (10^-7 M), the inhibition rate at that concentration was defined to be the binding rate.

With `Cc1ccccc1C(=O)Nc1ccc(C(=O)N2Cc3cccn3Cc3ccccc32)cc1` [Comp. Ex. 4, reference compound], the “Amount of Urine Volume” value in the assay with Normal Conscious Rat (3 mg/kg, i.v.) is recorded as 34.8 ml/kg/0-4 hr; in the assay with Normal Conscious Rat (30 mg/kg, p.o.) it was 22.6 ml/kg/0-4 hr.

For the molecule `O=C(Nc1ccc(C(=O)N2C[C@@H]3CCCN3c3ccccc32)cc1)c1ccccc1-c1ccccc1` [Example 1, (3aS)-5-[4-[(2-Phenylbenzoyl)Amino]Benzoyl]-1,2,3,3a,4,5-Hexahydro-Pyrrolo[1,2-a]Quinoxaline], the “Amount of Urine Volume” value in the assay on Normal Conscious Rat (3 mg/kg, i.v.) was 33.1 ml/kg/0-4 hr; in the assay with Normal Conscious Rat (30 mg/kg, p.o.) it was 40.3 ml/kg/0-4 hr.

With `O=C(Nc1ccc(C(=O)N2C[C@@H]3C[C@@H](O)CN3c3ccccc32)cc1)c1ccccc1-c1ccccc1` [Example 3], the “Amount of Urine Volume” value in the assay with Normal Conscious Rat (3 mg/kg, i.v.) is reported as 29.5 ml/kg/0-4 hr; with Normal Conscious Rat (30 mg/kg, p.o.), 54.0 ml/kg/0-4 hr.

For `O=C(Nc1ccc(C(=O)N2C[C@@H]3C[C@H](O)CN3c3ccccc32)cc1)c1ccccc1-c1ccccc1` [Example 7, (2S, 3aS)-2-Hydroxy-5-[4-[(2-Phenylbenzoyl) Amino]Benzoyl]-1,2,3,3a,4,5-Hexahydro-Pyrrolo[1,2-a]Quinoxaline], the “Amount of Urine Volume” value in the assay on Normal Conscious Rat (3 mg/kg, i.v.) came out at 29.3 ml/kg/0-4 hr; in the assay on Normal Conscious Rat (30 mg/kg, p.o.), 33.8 ml/kg/0-4 hr.

Take `Cc1ccc(-c2ccccc2C(=O)Nc2ccc(C(=O)N3C[C@@H]4C[C@H](O)CN4c4ccccc43)cc2)cc1` [Example 8, (2S, 3aS)-2-Hydroxy-5-[4-[[2-(4-Tolyl) Benzoyl]Amino]Benzoyl]-1,2,3,3a,4,5-Hexahydro-Pyrrolo[1,2-a]Quinoxahine]: the values for the inhibition at 0.1 µM on Vasopressin V1 Receptor and on Vasopressin V2 Receptor were 16.3% and 100%, respectively.

`CN(C)[C@H]1C[C@H]2CN(C(=O)c3ccc(NC(=O)c4ccccc4-c4ccccc4)cc3)c3ccccc3N2C1.Cl` [Example 10, (2S, 3aS)-2-(N,N-Dimethylamino)-5-[4-[(2-Phenylbenzoyl) Amino]Benzoyl]-1,2,3,3a,4,5-Hexahydro-Pyrrolo[1,2-a]Quinoxaline Hydrochloride]: the “Amount of Urine Volume” value amounted to 22.2 ml/kg/0-4 hr in the assay with Normal Conscious Rat (3 mg/kg, i.v.) and 39.6 ml/kg/0-4 hr with Normal Conscious Rat (30 mg/kg, p.o.).

As to `O=C(Nc1ccc(C(=O)N2C[C@H]3CCCN3c3ccccc32)cc1)c1ccccc1-c1ccccc1` [Example 11, (3aR)-5-[4-[(2-Phenylbenzoyl) Amino]Benzoyl]-1,2,3,3a,4,5-Hexahydro-Pyrrolo[1,2-a]Quinoxaline], the “Amount of Urine Volume” value in the assay with Normal Conscious Rat (3 mg/kg, i.v.) was found to be 56.5 ml/kg/0-4 hr; in the assay on Normal Conscious Rat (30 mg/kg, p.o.), 69.6 ml/kg/0-4 hr. Further, the inhibition at 0.1 µM at Vasopressin V1 Receptor was determined as 34%; on Vasopressin V2 Receptor, 100%.

Turning to `Cc1ccc(-c2ccccc2C(=O)Nc2ccc(C(=O)N3C[C@H]4CCCN4c4ccccc43)cc2)cc1` [Example 12, (3aR)-5-[4-[[2-(4-Tolyl) Benzoyl]Amino]Benzoyl]-1,2,3,3a,4,5-Hexahydro-Pyrrolo[1,2-a]Quinoxaline], the “Amount of Urine Volume” value is given as 66.0 ml/kg/0-4 hr in the assay on Normal Conscious Rat (3 mg/kg, i.v.) and 12.8 ml/kg/0-4 hr in the assay with Normal Conscious Rat (30 mg/kg, p.o.).

With `Cc1ccc(-c2ccccc2C(=O)Nc2ccc(C(=O)N3C[C@H]4C[C@@H](O)CN4c4ccccc43)cc2)cc1` [Example 14, (2R,3aR)-2-Hydroxy-5-[4-[[2-(4-Tolyl) Benzoyl]Amino]Benzoyl]-1,2,3,3a-4,5-Hexahydro-Pyrrolo[1,2-a]Quinoxaline], the “Amount of Urine Volume” value with Normal Conscious Rat (3 mg/kg, i.v.) came to 60.6 ml/kg/0-4 hr; in the assay on Normal Conscious Rat (30 mg/kg, p.o.) it was 90.3 ml/kg/0-4 hr.

As for `CC(=O)O[C@H]1C[C@@H]2CN(C(=O)c3ccc(NC(=O)c4ccccc4-c4ccc(C)cc4)cc3)c3ccccc3N2C1` [Example 16, (2S, 3aR)-2-Acetoxy-5-[4-[[2-(4-Tolyl) Benzoyl]Amino]Benzoyl]-1,2,3,3a,4,5-Hexahydro-Pyrrolo[1,2-a]Quinoxaline], the “Amount of Urine Volume” value with Normal Conscious Rat (3 mg/kg, i.v.) worked out at 71.0 ml/kg/0-4 hr; in the assay with Normal Conscious Rat (30 mg/kg, p.o.), 72.0 ml/kg/0-4 hr. For the same molecule, the inhibition at 0.1 µM at Vasopressin V1 Receptor came out at 68.2%; on Vasopressin V2 Receptor, 100%.

For the molecule `O=C(Nc1ccc(C(=O)N2C[C@H]3C[C@H](O)CN3c3ccccc32)cc1)c1ccccc1-c1ccccc1` [Example 17, (2S, 3aR)-2-Hydroxy-5-[4-[(2-Phenylbenzoyl) Amino]Benzoyl]-1,2,3,3a,4,5-Hexahydro-Pyrrolo[1,2-a]Quinoxaline], the “Amount of Urine Volume” value in the assay with Normal Conscious Rat (3 mg/kg, i.v.) was found to be 58.6 ml/kg/0-4 hr; in the assay on Normal Conscious Rat (30 mg/kg, p.o.), 26.3 ml/kg/0-4 hr. Further, the inhibition at 0.1 µM was 52.4% on Vasopressin V1 Receptor and 100% at Vasopressin V2 Receptor.

With `O=C(Nc1ccc(C(=O)N2C[C@H]3C[C@H](F)CN3c3ccccc32)cc1)c1ccccc1-c1ccccc1` [Example 23, (2S, 3aR)-2-Fluoro-5-[4-[(2-Phenylbenzoyl) Amino]Benzoyl]-1,2,3,3a,4,5-Hexahydro-Pyrrolo[1,2-a]Quinoxaline], the “Amount of Urine Volume” value was found to be 27.2 ml/kg/0-4 hr in the assay with Normal Conscious Rat (3 mg/kg, i.v.) and 35.6 ml/kg/0-4 hr in the assay with Normal Conscious Rat (30 mg/kg, p.o.).

For the molecule `Cl.O=C(Nc1ccc(C(=O)N2C[C@H]3C[C@@H](O)CN3Cc3ccccc32)cc1)c1ccccc1-c1ccccc1` [Example 45, (2R,11aR)-2-Hydroxy-10-[4-[(2-Phenylbenzoyl) Amino]Benzoyl]-1,2,3,10,11,11a-Hexahydro-5H-Pyrrolo[2,1-c][1,4]Benzodiazepine Hydrochloride], the “Amount of Urine Volume” value in the assay with Normal Conscious Rat (3 mg/kg, i.v.) is 51.4 ml/kg/0-4 hr; with Normal Conscious Rat (30 mg/kg, p.o.) it was 93.9 ml/kg/0-4 hr.

As to `CC(=O)O[C@H]1C[C@@H]2CN(C(=O)c3ccc(NC(=O)c4ccccc4-c4ccccc4)cc3)c3ccccc3CN2C1` [Example 46, (2S, 11aR)-2-Acetoxy-10-[4-[(2-Phenylbenzoyl) Amino]Benzoyl]-1,2,3,10,11,11a-Hexahydro-5H-Pyrrolo[2,1-c][1,4]Benzodiazepine], the “Amount of Urine Volume” value in the assay on Normal Conscious Rat (3 mg/kg, i.v.) is reported as 82.5 ml/kg/0-4 hr; in the assay on Normal Conscious Rat (30 mg/kg, p.o.), 118.8 ml/kg/0-4 hr.

As to `O=C(Nc1ccc(C(=O)N2CC[C@H]3CCCN3c3ccccc32)cc1)c1ccccc1-c1ccccc1` [Example 51, (3aR)-6-[4-[(2-Phenylbenzoyl) Amino]Benzoyl]-2,3,3a,4,5,6-Hexahydro-1H-Pyrrolo[1,2-a][1,5]Benzodiazepine], the “Amount of Urine Volume” value in the assay on Normal Conscious Rat (3 mg/kg, i.v.) worked out at 63.8 ml/kg/0-4 hr; in the assay on Normal Conscious Rat (30 mg/kg, p.o.), 21.7 ml/kg/0-4 hr.

With `CC(=O)O[C@H]1C[C@@H]2CCN(C(=O)c3ccc(NC(=O)c4ccccc4-c4ccccc4)cc3)c3ccccc3N2C1` [Example 53, (2S, 3aS)-2-Acetoxy-6-[4-[(2-Phenylbenzoyl) Amino]Benzo]-2,3,3a,4,5,6-Hexahydro-1H-Pyrrolo[1,2-a][1,5]Benzodiazepine], the inhibition at 0.1 µM on Vasopressin V1 Receptor stood at 63.8%; on Vasopressin V2 Receptor, 97.9%.

For `CN(C)C1CC2CCN(C(=O)c3ccc(NC(=O)c4ccccc4-c4ccccc4)cc3)c3ccccc3N2C1.Cl` [Example 56, (2S, 3aR)-2-(N,N-dimethylamino)-6-[4-[(2-phenylbenzoyl)amino]benzoyl]-2,3,3a,4,5,6-hexahydro-1H-Pyrrolo[1,2-a][1,5]benzodiazepinehydrochloride], the “Amount of Urine Volume” value in the assay on Normal Conscious Rat (3 mg/kg, i.v.) stood at 87.4 ml/kg/0-4 hr; with Normal Conscious Rat (30 mg/kg, p.o.), 116.4 ml/kg/0-4 hr.
